US20200216499A1, “ANGIOTENSIN-(1-7) ANALOGS AND METHODS RELATING THERETO” (WAKE FOREST UNIVERSITY HEALTH SCIENCES, priority 2015, published 2020)
“Also recorded” adds a separate entry of the source.

Assays:
[1] = target: human ACE (Homo sapiens, UniProt P12821); assay: Degradation by ACE (HPLC of reaction products); type: in vitro ADME; conditions: 100 μM peptide, 1.0 μg human ACE, reaction buffer pH 7.4, 2 hours at 37° C., HPLC UV 220 nm
Procedure: FIGS. 2A-4D show graphs depicting enzymatic digestion by angiotensin converting enzyme (ACE) of Ang-(1-7), Ang-(1-7)-ACCA^5, Ang-(1-7)-ACCA^6, and Ang-(1-7)-ACCA^3, respectively, in accordance with one aspect. The peptides (100 μM) were incubated with human ACE (1.0 μg) in reaction buffer for 2 hours at 37° C. in a final volume of 100 μL, and the reaction products assessed by HPLC (UV 220 nm).
Analogs with ACCA at position 5 (Ang-(1-7)-ACCA^5), position 6 (Ang-(1-7)-ACCA^6), and position 3 (Ang-(1-7)-ACCA^3) were assessed to determine whether the analogs were degraded by ACE. Ang-(1-7) served as the control. Specifically, 100 μM of one of the three analogs or Ang-(1-7) was incubated with 1.0 μg of human ACE in reaction buffer (25 mM Hepes, 125 mM NaCl, 10 μM ZnCl2, pH 7.4) for 2 hours at 37° C. in a final volume of 100 μL. The resultant reaction products were separated by high pressure liquid chromatography (HPLC) on a Phenomenex Aeris Peptide C18 column using a Shimadzu Prominence system and detected by UV analysis at 220 nm.

[2] = target: T1, Human DPP III (Homo sapiens, UniProt Q9NY33); assay: Degradation by DPP III (HPLC of reaction products); type: in vitro ADME; conditions: 100 μM peptide, 1.0 μg human DPP III, 2 hours at 37° C., HPLC UV 220 nm
T1 sequence (Q9NY33 1-737): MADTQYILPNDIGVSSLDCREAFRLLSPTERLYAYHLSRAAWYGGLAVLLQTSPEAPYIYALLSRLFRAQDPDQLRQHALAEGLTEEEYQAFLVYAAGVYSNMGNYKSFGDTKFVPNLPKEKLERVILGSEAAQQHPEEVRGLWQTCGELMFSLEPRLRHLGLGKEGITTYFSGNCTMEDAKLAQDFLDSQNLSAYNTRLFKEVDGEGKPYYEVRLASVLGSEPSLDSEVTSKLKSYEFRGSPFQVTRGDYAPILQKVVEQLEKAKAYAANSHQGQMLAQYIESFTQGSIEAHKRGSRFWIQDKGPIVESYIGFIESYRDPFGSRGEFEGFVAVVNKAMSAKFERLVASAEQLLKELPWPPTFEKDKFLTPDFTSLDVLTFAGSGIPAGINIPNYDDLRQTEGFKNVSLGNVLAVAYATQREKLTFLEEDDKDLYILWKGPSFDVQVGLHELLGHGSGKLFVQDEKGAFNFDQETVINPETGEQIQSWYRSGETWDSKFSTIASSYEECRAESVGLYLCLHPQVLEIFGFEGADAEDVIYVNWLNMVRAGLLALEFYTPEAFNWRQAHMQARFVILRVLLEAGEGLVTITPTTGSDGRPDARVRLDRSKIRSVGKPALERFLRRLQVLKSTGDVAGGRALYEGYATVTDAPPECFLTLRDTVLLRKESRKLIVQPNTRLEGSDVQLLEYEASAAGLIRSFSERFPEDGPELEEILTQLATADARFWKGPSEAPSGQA
Procedure: FIGS. 3A-5D show graphs depicting enzymatic digestion by dipeptidyl peptidase III (DPE III) of Ang-(1-7), Ang-(1-7)-ACCA^5, Ang-(1-7)-ACCA^6, and Ang-(1-7)-ACCA^3, respectively, in accordance with one aspect. The peptides (100 μM) were incubated with human DPE III (1.0 μg) in reaction buffer for 2 hours at 37° C. in a final volume of 100 μL, and the reaction products assessed by HPLC (UV 220 nm).
The Ang-(1-7) and the analogs Ang-(1-7)-ACCA^5, Ang-(1-7)-ACCA^6, and Ang-(1-7)-ACCA^3 were assessed to determine whether they were resistant to metabolism by the enzyme dipeptidyl peptidase III (DPP III). DPP III metabolizes Ang-(1-7) at different sites as compared to ACE (Chappell et al., Front Endocrinol (Lausanne) 4:201 (pp. 1-13) (2014)). The incubation conditions and detection methods for the metabolism by DPP III were identical to that used to assess degradation by ACE as described in Example 3.

[3] = cited from earlier work

Chain of human ACE (P12821 30-1306): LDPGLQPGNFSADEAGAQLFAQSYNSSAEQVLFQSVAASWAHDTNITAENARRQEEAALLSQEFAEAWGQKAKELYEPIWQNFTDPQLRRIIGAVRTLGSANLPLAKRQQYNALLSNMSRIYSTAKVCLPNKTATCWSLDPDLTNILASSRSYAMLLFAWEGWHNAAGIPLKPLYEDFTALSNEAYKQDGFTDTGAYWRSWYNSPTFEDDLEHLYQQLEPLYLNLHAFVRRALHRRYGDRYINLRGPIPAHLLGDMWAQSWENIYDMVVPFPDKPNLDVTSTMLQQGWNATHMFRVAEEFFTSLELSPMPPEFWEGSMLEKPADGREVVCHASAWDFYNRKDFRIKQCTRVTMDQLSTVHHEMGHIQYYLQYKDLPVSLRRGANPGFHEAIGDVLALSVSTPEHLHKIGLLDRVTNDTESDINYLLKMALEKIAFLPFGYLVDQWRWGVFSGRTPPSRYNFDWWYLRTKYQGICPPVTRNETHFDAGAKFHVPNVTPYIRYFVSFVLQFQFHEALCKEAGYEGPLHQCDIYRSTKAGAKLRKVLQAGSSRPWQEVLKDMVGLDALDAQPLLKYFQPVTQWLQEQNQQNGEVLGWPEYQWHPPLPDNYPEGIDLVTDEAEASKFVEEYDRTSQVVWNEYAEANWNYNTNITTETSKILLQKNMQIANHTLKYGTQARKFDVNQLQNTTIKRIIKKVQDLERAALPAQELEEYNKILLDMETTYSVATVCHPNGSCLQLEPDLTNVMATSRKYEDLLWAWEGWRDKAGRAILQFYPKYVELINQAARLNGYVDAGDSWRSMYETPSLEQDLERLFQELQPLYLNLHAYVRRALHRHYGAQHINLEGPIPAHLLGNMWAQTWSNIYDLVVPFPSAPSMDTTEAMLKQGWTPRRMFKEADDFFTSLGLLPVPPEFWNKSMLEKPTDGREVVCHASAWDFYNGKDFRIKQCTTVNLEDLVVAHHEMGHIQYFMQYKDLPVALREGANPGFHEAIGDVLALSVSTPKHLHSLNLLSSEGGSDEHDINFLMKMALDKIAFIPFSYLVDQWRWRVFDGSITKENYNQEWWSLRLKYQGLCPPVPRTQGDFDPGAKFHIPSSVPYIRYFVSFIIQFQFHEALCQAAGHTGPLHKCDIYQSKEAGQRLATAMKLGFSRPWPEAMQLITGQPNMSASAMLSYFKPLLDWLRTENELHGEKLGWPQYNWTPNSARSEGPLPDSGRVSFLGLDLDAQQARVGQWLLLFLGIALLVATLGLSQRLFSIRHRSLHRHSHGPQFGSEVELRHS

For `CC[C@H](C)[C@H](NC(=O)[C@H](Cc1ccc(O)cc1)NC(=O)[C@@H](NC(=O)[C@H](CCCNC(=N)N)NC(=O)[C@@H](N)CC(=O)O)C(C)C)C(=O)N[C@@H](Cc1c[nH]cn1)C(=O)N1CCC[C@H]1C(=O)O` [Ang-(1-7), Asp-Arg-Val-Tyr-Ile-His-Pro], the “degradation / resistance to metabolism by ACE” value [1] is given as “degraded to Ang-(1-5) and the dipeptide His-Pro; also recorded: readily degraded”, the “degradation / resistance to metabolism by DPP III” value [2] is given as “sequentially degraded; also recorded: readily degraded” and the half-life in plasma [3] is given as 30 min.
